Assay results from PubChem BioAssay (NCI).
Where “and” joins values, the source holds several entries; their conditions need not be identical. Identical values can stand only once.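 Interpolation was linear, between the two tested concentrations surrounding the appropriate level; five concentrations were tested over 48 hours in 96-well plates. The concentration for 50% growth inhibition is given as GI50. The concentration for full growth arrest is given as TGI.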

What was measured:
Assay in all cases: NCI-60 cell line screen, 48 h
KM12 colon = system: KM12 colon
HL-60(TB) leukemia = system: HL-60(TB) leukemia
LXFL 529 NSCLC = system: LXFL 529 NSCLC
SNB-78 CNS = system: SNB-78 CNS
MDA-N = system: MDA-N
CAKI-1 renal = system: CAKI-1 renal
MDA-MB-435 = system: MDA-MB-435
HOP-18 NSCLC = system: HOP-18 NSCLC
HCC-2998 colon = system: HCC-2998 colon
K-562 leukemia = system: K-562 leukemia
DLD-1 colon = system: DLD-1 colon
HS 578T breast = system: HS 578T breast

O=C1/C(=C/c2ccc(Cl)c(Cl)c2)CN(C(=O)CCN2CCOCC2)C/C1=C\c1ccc(Cl)c(Cl)c1
TGI (KM12 colon): 137 nM and 1270 nM and 326 nM | GI50 (HL-60(TB) leukemia): 362 nM and 277 nM | TGI (HL-60(TB) leukemia): 1100 nM and 632 nM | GI50 (LXFL 529 NSCLC): 499 nM | TGI (LXFL 529 NSCLC): 2990 nM and 1630 nM | GI50 (SNB-78 CNS): 2220 nM | TGI (SNB-78 CNS): 9930 nM and 6300 nM | TGI (MDA-N): 44.1 nM | GI50 (CAKI-1 renal): 579 nM | TGI (CAKI-1 renal): 3400 nM and 3530 nM and 2030 nM | TGI (MDA-MB-435): 30.9 nM | GI50 (HOP-18 NSCLC): 2110 nM | TGI (HOP-18 NSCLC): 5960 nM and 5490 nM | GI50 (HCC-2998 colon): 773 nM | TGI (HCC-2998 colon): 3560 nM and 2080 nM | GI50 (K-562 leukemia): 259 nM and 315 nM | TGI (K-562 leukemia): 585 nM and 2990 nM | GI50 (DLD-1 colon): 245 nM | TGI (DLD-1 colon): 409 nM and 785 nM | TGI (HS 578T breast): > 10000 nM
